Tests used:
[1] = test system: SD rats; test: Paw pressure test (Randall and Selitto), analgesic effect after oral administration; format: in vivo, Sprague-Dawley rats; details: alone or combined, mean ± SE; for AUC / AUG: analgesic effect AUC; for AUC: 0-300 min; for Maximum Peak (% of MPA): cut-off 750 g; for Duration of action (min) (20% of MPA): time over 20% MPA; for Onset of action (min) (20% of MPA): time up to 20% MPA
Procedure: Male Sprague-Dawley rats weights between 260 and 330 g were purchased from BioLASCO (Taipei, Taiwan). The rats were housed in a controlled condition (free access to food and water); 12-h light-dark cycle, temperature 22° C. and humidity 60%. All experiments were conducted in accordance with the IACUC's Protocol for the Care and Use of Animals and to treat the animals in an ethical and humane manner consistent with the law.
Analgesic effects studies were used to the paw pressure test by Randall and Selitto. Nociceptive threshold is expressed in grams and measured with an analgesimeter (IITC Inc. Life Science, CA), were applied to the left hind paw of rats. All animals were tested at 15, 30, and 45 min prior to medication, to obtain an average baseline. Results were expressed as a percentage of the maximum possible effect (% MPE), according to the formula % MPA=(Test-Baseline)/(Cutoff-Baseline)×100, cut-off value: 750 g. AUC (area under curve) is independent of each individual, at each time point detection value minus own baseline and integral, then calculated the average. Negative values (% MPA and AUC) are considered as zero. The maximum peak of % MPA and Tmax are independent of each individual, then calculated the average. With 20% MPA as a baseline of valid analgesic effect, analysis of onset time of action up to 20% MPA and duration time of action over 20% MPA. Pharmacodynamic studies were conducted to compare in rats the analgesic effects of oral administration of SDE 75 mg/kg alone. AAP product (100 mg/kg) alone and combinations of SDE 75 mg/kg plus AAP product (100 mg/kg) or NAL 60 mg/kg alone. AAP product (100 mg/kg) alone and combinations of NAL 60 mg/kg plus AAP product (100 mg/kg). The anti-nociceptive thresholds were measured at 30, 60, 90, 120, 150, 180, 210, 240, 270, and 300 min after drug administration.

[2] = test system: postoperative pain; details: oral vs intramuscular; cited from earlier work
[3] = test system: hospitalized patients with postoperative pain; details: single oral doses, 128 hospitalized patients, evaluated each hour for 6 hours; Clin Pharmacol Ther 1986; 39:295-9; cited from earlier work
[4] = conventional form, Br J Clin Pharmacol 1988, 25:264-8; cited from earlier work
[5] = Test 1, AAP product 100 mg/kg, SDE 75 mg/kg
[6] = Test 1, AAP product 100 mg/kg, SDE 75 mg/kg, time of maximum % MPA
[7] = Test 2, NAL 60 mg/kg, AAP product 100 mg/kg, MPA greater than 50%
[8] = Test 2, NAL 60 mg/kg, AAP product 100 mg/kg

Structure (SMILES)	AUC [1, 5] [g·h]	Maximum Peak (% of MPA) [1, 5]	Tmax [1, 6] [min]	Duration of action (min) (20% of MPA) [1, 5]	Onset of action (min) (20% of MPA) [1, 5]	potency of oral relative to intramuscular nalbuphine as postoperative analgesic [2]	analgesic effect (measures of total and peak analgesia) [3]	Duration of action [1, 7] [min]	Onset of action [1, 7] [min]	AUG [1, 8] [g·h]	% MPA (Maximum Peak) [1, 8] [% MPA]	Tmax [1, 8] [min]	bioavailability through oral administration [4]
O=C(CCCCCCCCC(=O)Oc1ccc2c3c1O[C@H]1[C@@H](O)CC[C@@]4(O)[C@@H](C2)N(CC2CCC2)CC[C@]314)Oc1ccc2c3c1O[C@H]1[C@@H](O)CC[C@@]4(O)[C@@H](C2)N(CC2CCC2)CC[C@]314 [SDE, sebacoyl dinalbuphine ester]	359.4 ± 34.8	46.6 ± 3.8 % of MPA	37.5 ± 3.9	99.8 ± 10.0	14.7 ± 1.3								
Oc1ccc2c3c1O[C@H]1[C@@H](O)CC[C@@]4(O)[C@@H](C2)N(CC2CCC2)CC[C@]314 [NAL, nalbuphine]						one quarter to one fifth as potent as intramuscular nalbuphine	significantly superior to placebo	16.61 ± 3.92	24.36 ± 0.86	298.9 ± 13.98	57.87 ± 2.77	30 ± 0	less than 5%
CC(=O)Nc1ccc(O)cc1 [AAP, acetaminophen]	309.3 ± 68.5	32.4 ± 2.7 % of MPA	50.0 ± 10.0	77.5 ± 13.5	46.7 ± 17.5		significantly superior to placebo			274.83 ± 51.94	38.26 ± 7.2	45 ± 8.66	
